Experimental data as given in patent US6555558B2, “Oral dosage self-emulsifying formulations of pyranone protease inhibitors” (priority 2000, dated 2003).

How the values were obtained:
[1] = solubility in polyethylene glycols; type: physicochemical; conditions: polyethylene glycols within a defined average molecular weight range
Procedure: Microemulsion phase diagrams were constructed for systems containing various lipophilic phases, hydrophilic phases, and surfactants. After numerous studies it was determined that a number of pyranone protease inhibitors, including tipranavir, were soluble in polyethylene glycols within a defined average molecular weight range, and could be used to replace propylene glycol and ethanol found in conventional microemulsion formulations of such drugs.

[2] = free acid form; pH of from about 6 to about 7; cited from earlier work
[3] = test system: HIV; conditions: antiviral cell culture; cited from earlier work
[4] = biological target: T1, HIV protease (Human immunodeficiency virus type 1 group M subtype B, UniProt P04585); conditions: in vitro enzymatic inhibition; cited from earlier work
T1 construct: one of the smallest enzymes yet characterized (consisting of only 99 amino acids)

[5] = test system: viral aspartate proteases of a variety of HIV type 1 laboratory strains and clinical isolates; conditions: including those resistant to zidovudine and delavirdine; cited from earlier work
[6] = test system: isolates resistant to indinavir, ritonavir and nelfinavir; saquinavir resistance; conditions: cited from earlier work
[7] = test system: HIV-1 variants resistant to the peptidomimetic protease inhibitors; conditions: cited from earlier work
[8] = cited from earlier work
[9] = test system: clinical isolates with a wide range of resistance to currently available peptidomimetic protease inhibitors; conditions: 105 viruses with more than tenfold resistance to three or four proteinase inhibitors, average 6.1 protease mutations; cited from earlier work

Compound: CCC[C@@]1(CCc2ccccc2)CC(O)=C([C@H](CC)c2cccc(NS(=O)(=O)c3ccc(C(F)(F)F)cn3)c2)C(=O)O1 [tipranavir]
- solubility in polyethylene glycols [1]: soluble
- aqueous solubility [2]: about 10 μg/ml
- IC90 [3]: ~100 nM
- Ki [4]: ~8 pM
- potency against viral aspartate proteases [5]: excellent potency
- antiviral activity against isolates resistant to indinavir, ritonavir and nelfinavir [6]: retain sustained antiviral activity
- activity against HIV-1 variants resistant to peptidomimetic protease inhibitors [7]: highly active
- Log P [8]: about 6.1
- share of resistant viruses susceptible [9]: ninety
